{"source": "paper PMC11862611", "about": "(RSC Medicinal Chemistry, 2025)", "key": {"[1]": {"test_system": "L. major ΔLCB2 promastigotes", "type": "cell-based, Leishmania major", "conditions": "EC50 WT versus ΔLCB2 L. major promastigotes", "quoted_text": "(§4) L. major promastigotes (FV1) WT, PX and Δ LCB2 in Schneider’s insect medium (100 μL at 1 × 106 mL−1) were incubated in 96-well plates with compounds in triplicate (amphotericin B and cycloheximide were used as positive controls, and untreated parasites with 1% DMSO as a negative control) at 26 °C for 48 h.\n(§5) Resazurin Solution (10 μL) was then added and the plate incubated at 26 °C for 4 h prior to measurement using a fluorescence plate reader (555 - 585 nm). EC50 values were calculated using sigmoidal regression analysis (GraphPad Prism)."}, "[2]": {"biological_target": "T1, 5-HTB2 receptors (Homo sapiens, UniProt P41595)", "T1 construct": "purchased Eurofins (contract assay); host or cells: cell membrane homogenates", "T1 sequence (P41595 whole entry)": "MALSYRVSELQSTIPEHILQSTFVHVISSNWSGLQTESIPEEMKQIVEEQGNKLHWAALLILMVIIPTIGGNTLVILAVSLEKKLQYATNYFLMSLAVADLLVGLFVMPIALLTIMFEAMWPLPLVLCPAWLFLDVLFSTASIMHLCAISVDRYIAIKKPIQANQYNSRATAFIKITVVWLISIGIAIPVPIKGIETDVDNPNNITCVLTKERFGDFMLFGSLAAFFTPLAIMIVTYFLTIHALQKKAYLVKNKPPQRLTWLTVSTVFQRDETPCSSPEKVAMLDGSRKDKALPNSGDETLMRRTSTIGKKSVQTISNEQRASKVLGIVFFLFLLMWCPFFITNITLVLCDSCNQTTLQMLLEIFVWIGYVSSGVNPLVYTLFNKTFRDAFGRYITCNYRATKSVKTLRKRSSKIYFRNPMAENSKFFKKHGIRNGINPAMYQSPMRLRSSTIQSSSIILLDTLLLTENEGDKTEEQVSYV", "experiment": "radioligand displacement assay, 5-HT2B", "type": "binding", "description": "(§1) 4.2.3.6. Radioligand Binding Assay (Supplemental Figure S3)\n(§2) These assays were run by Eurofins under contract to LifeArc FR095-0011887. A representative protocol describing the human histamine H2 receptor (antagonist radioligand) assay is shown below.12 Cell membrane homogenates (24 µg protein) are incubated for 120 min at 22°C with 0.075 nM [125I]APT in the absence or presence of the test compound in a buffer containing 50 mM Na2HPO4/KH2PO4 (pH […]\n(§3) 7.4) and 0.05% BSA. […] Following"}, "[3]": {"biological_target": "T2, M5 (h) (antagonist radioligand) (Homo sapiens, UniProt P08912)", "T2 construct": "purchased Eurofins (contract assay); host or cells: cell membrane homogenates", "T2 sequence (P08912 1-532)": "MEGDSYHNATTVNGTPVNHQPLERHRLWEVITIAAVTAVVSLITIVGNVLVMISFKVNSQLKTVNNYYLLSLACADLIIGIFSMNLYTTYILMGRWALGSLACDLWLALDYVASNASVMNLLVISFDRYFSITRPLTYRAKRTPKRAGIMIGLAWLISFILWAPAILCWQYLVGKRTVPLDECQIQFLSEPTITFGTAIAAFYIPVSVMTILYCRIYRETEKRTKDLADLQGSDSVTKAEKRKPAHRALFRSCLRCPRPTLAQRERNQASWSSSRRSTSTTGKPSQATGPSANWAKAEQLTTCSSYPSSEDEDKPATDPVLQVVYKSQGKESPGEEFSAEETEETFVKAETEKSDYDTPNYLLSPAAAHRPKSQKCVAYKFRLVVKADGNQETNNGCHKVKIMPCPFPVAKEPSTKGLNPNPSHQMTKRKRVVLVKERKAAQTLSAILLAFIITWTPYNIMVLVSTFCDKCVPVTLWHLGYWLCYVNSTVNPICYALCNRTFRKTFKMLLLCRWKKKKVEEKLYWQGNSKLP", "experiment": "radioligand displacement assay, M5", "type": "binding", "description": "as §1, §2, §3"}, "[4]": {"biological_target": "T3, H1 (h) (antagonist radioligand) (Homo sapiens, UniProt P35367)", "T3 construct": "purchased Eurofins (contract assay); host or cells: cell membrane homogenates", "T3 sequence (P35367 whole entry)": "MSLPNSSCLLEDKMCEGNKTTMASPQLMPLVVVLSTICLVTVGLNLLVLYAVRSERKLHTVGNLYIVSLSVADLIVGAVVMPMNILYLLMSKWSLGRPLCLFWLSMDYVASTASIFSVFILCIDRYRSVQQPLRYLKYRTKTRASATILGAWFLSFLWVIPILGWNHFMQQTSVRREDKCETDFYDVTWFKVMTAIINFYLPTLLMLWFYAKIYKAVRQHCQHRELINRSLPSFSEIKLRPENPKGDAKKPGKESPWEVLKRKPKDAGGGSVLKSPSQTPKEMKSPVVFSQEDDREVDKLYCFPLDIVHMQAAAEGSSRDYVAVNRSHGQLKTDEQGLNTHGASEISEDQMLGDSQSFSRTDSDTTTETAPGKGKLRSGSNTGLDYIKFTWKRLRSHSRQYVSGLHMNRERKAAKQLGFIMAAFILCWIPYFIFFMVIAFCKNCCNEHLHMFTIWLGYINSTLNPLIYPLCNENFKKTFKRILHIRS", "experiment": "radioligand displacement assay, H1", "type": "binding", "description": "as §1, §2, §3"}, "[5]": {"biological_target": "T4, M1 (h) (antagonist radioligand) (Homo sapiens, UniProt P11229)", "T4 construct": "purchased Eurofins (contract assay); host or cells: cell membrane homogenates", "T4 sequence (P11229 1-460)": "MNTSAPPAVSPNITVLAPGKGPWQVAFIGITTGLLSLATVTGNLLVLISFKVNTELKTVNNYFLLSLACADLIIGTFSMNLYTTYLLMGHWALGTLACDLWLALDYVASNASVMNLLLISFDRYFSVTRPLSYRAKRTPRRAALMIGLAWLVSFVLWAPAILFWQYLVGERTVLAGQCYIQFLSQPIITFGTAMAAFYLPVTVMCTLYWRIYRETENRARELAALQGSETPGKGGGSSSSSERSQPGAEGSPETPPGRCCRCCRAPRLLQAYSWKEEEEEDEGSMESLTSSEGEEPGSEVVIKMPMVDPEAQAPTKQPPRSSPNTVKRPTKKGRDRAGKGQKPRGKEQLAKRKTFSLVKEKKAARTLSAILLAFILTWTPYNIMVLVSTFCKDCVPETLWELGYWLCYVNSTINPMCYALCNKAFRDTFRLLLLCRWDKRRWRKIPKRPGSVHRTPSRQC", "experiment": "radioligand displacement assay, M1", "type": "binding", "description": "as §1, §2, §3"}, "[6]": {"test_system": "panel of neurotransmitter receptors", "experiment": "radioligand displacement assay, whole panel", "type": "binding, human", "description": "as §1, §2, §3"}, "[7]": {"biological_target": "T5, M4 (h) (antagonist radioligand) (Homo sapiens, UniProt P08173)", "T5 construct": "purchased Eurofins (contract assay); host or cells: cell membrane homogenates", "T5 sequence (P08173 1-479)": "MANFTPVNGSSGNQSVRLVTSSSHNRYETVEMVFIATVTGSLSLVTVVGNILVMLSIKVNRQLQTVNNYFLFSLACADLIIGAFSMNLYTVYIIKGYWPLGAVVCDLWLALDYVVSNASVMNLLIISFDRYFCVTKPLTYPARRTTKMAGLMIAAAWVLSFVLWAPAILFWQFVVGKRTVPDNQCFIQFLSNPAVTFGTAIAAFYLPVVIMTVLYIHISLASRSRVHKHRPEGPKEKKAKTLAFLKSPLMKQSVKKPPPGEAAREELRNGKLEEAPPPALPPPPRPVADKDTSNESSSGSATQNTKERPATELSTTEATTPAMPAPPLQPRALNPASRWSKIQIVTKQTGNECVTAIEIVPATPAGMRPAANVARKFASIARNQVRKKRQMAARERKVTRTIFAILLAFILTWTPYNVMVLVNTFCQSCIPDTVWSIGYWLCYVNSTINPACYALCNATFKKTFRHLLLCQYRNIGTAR", "experiment": "radioligand displacement assay, M4", "type": "binding", "description": "as §1, §2, §3"}, "[8]": {"test_system": "L. major PX promastigotes", "experiment": "on-target growth inhibition, add-back cell line (PX)", "type": "cell-based, Leishmania major", "quoted_text": "as §4, §5"}, "[9]": {"test_system": "L. amazonensis GFP promastigotes", "experiment": "mouse model of L. amazonensis infection (ear, IL dosing)", "type": "in vivo, BALB/c mice", "conditions": "1.2 mg kg^−1 IL twice a week for 4 weeks", "description": "Consequently, we used IL dosing for this experiment. To enable direct comparison with CF, the same treatment regimen (dose of 1.2 mg kg^−1via IL injection twice a week for 4 weeks starting on DPI) was used for both compounds.\nA Weight variation of mice during 28 days of treatment. B Progression of lesion thickness over 28 day treatment period. C Representative photographs of the infected ear for each group taken after completion of treatment, D parasite burden was evaluated by LDA on 36 days post infection. […]\nIn vivo assays were conducted as previously reported 1. Two month old BALB/c female mice, weighing 20 - 25 g and of approximately the same age were used for the study. For infection of mice, stationary phase GFP L. amazonensis promastigotes were collected, washed and suspended in sterile PBS. A volume of 10 μl of sterile PBS containing 2 x 10^6 parasites was injected into the right ear. […]\nInfected ear thicknesses were measured once or twice a week with a caliper gauge, and the lesion sizes were expressed as the difference between the thickness of infected and non-infected ear. On day 41 animals were sacrificed and the fluorescence measured (485 - 528 nm) and parasite load quantified using a limiting dilution assay (LDA).\nData on lesion progression were analysed for statistical significance by using the Dunnett test as part of the one-way ANOVA (GraphPad Prism 8 software). […]"}}, "data": [{"smiles": "C[C@H]1CCCN1CCCO[C@H](c1ccccc1)c1ccc(Cl)cc1", "note": "[38l]", "values": [{"measurement": "times more active against WT than mutant ΔLCB2 promastigotes", "setting": "[1]", "result": "approximately 3 times"}, {"measurement": "affinity, radioligand displacement, 5-HTB2", "setting": "[2]", "result": "lower affinity"}, {"measurement": "affinity, radioligand displacement, M5", "setting": "[3]", "result": "lower affinity"}, {"measurement": "effective binding, radioligand displacement, H1", "setting": "[4]", "result": "> 40", "unit": "%"}, {"measurement": "effective binding, radioligand displacement, M1", "setting": "[5]", "result": "> 40", "unit": "%"}, {"measurement": "binding profile across receptor panel", "setting": "[6]", "result": "greater selectivity"}, {"measurement": "effective binding, radioligand displacement, M4", "setting": "[7]", "result": "> 40", "unit": "%"}, {"measurement": "sensitivity in the add-back cell line (PX)", "setting": "[8]", "result": "Sensitivity was restored"}, {"measurement": "lesion growth trends", "setting": "[9]; 35 days post-infection", "result": "similar"}, {"measurement": "parasitaemia (parasite burden by LDA) versus untreated group", "setting": "[9]; LDA 36 days post infection", "result": "statistically significant reduction"}]}]}
